# Assay results published in article PMC11558128 (Advanced Science, 2024).
# Substitutions are numbered along the chain they refer to. Read-outs that look alike come from different tables or passages of the source. Positions of bridges follow the written chain, without caps; N, C: chain ends. Residues, ends and D or L forms follow the SMILES beside them.
# How the values were obtained:
# [1] = tested on: other Kv channels (hKv1.1-1.5, rKv2.1, hKv3.1-3.4, mKv4.1, hKv7.2 and hERG); conditions: 1 µM toxin; n = 3-4
# rKv4.2 V278A = target: T1, rKv4.2 V278A (Rattus norvegicus, UniProt Q63881, V278A); experiment: cell-based; conditions: mean ± SEM
# T1 construct: expressed in transfected cells; host or cells: HEK293T
# T1 sequence (Q63881 1-630 V278A): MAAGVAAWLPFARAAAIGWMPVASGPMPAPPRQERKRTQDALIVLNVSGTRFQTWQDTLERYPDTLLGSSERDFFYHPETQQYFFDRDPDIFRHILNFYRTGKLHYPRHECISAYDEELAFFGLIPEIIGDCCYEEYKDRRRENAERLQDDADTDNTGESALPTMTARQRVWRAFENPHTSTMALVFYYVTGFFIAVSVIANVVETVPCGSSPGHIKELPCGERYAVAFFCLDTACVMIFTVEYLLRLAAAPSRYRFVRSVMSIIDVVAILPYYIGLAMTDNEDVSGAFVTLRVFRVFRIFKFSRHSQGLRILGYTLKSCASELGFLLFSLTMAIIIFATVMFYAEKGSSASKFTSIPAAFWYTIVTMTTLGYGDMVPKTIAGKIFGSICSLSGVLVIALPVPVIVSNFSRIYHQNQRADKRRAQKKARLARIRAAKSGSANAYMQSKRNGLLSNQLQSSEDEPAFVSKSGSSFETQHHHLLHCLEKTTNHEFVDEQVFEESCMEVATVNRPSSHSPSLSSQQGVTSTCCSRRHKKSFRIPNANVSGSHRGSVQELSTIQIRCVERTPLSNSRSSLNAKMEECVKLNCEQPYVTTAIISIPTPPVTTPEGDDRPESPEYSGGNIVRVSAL
# rKv4.2 T280A = target: T2, rKv4.2 T280A (Rattus norvegicus, UniProt Q63881, T280A); experiment: cell-based; conditions: mean ± SEM
# T2 construct: expressed in transfected cells; host or cells: HEK293T
# T2 sequence (Q63881 1-630 T280A): T1 sequence (Q63881 1-630 V278A) with A278V, T280A
# hNav1.7 = target: T3, hNav1.7 (Homo sapiens, UniProt Q15858); experiment: cell-based; conditions: whole-cell patch clamp, mean ± S.E.M., SEM
# T3 construct: expressed in transfected cells; host or cells: HEK293T
# rKv4.2 D281K = target: T4, rKv4.2 D281K (Rattus norvegicus, UniProt Q63881, D281K); experiment: cell-based; conditions: mean ± SEM
# T4 construct: expressed in transfected cells; host or cells: HEK293T
# T4 sequence (Q63881 1-630 D281K): T1 sequence (Q63881 1-630 V278A) with A278V, D281K
# rKv4.2 D284K = target: T5, rKv4.2 D284K (Rattus norvegicus, UniProt Q63881, D284K); experiment: cell-based; conditions: mean ± SEM; SEM
# T5 construct: expressed in transfected cells; host or cells: HEK293T
# T5 sequence (Q63881 1-630 D284K): T1 sequence (Q63881 1-630 V278A) with A278V, D284K
# [2] = HEK293T, hNav1.7 with β1 and β2, held at -90 mV, step to 0 mV, n = 3-7, read-out: IC50 for hNav1.7
# T3 sequence (O60939 30-215): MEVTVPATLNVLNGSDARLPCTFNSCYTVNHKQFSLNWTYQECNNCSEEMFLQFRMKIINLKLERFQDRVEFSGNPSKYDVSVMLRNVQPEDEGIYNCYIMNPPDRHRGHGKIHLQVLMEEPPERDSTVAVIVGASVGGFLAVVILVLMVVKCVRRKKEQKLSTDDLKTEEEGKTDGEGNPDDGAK
# T3 sequence (Q15858 other isoform, or with tags, fused parts or gaps): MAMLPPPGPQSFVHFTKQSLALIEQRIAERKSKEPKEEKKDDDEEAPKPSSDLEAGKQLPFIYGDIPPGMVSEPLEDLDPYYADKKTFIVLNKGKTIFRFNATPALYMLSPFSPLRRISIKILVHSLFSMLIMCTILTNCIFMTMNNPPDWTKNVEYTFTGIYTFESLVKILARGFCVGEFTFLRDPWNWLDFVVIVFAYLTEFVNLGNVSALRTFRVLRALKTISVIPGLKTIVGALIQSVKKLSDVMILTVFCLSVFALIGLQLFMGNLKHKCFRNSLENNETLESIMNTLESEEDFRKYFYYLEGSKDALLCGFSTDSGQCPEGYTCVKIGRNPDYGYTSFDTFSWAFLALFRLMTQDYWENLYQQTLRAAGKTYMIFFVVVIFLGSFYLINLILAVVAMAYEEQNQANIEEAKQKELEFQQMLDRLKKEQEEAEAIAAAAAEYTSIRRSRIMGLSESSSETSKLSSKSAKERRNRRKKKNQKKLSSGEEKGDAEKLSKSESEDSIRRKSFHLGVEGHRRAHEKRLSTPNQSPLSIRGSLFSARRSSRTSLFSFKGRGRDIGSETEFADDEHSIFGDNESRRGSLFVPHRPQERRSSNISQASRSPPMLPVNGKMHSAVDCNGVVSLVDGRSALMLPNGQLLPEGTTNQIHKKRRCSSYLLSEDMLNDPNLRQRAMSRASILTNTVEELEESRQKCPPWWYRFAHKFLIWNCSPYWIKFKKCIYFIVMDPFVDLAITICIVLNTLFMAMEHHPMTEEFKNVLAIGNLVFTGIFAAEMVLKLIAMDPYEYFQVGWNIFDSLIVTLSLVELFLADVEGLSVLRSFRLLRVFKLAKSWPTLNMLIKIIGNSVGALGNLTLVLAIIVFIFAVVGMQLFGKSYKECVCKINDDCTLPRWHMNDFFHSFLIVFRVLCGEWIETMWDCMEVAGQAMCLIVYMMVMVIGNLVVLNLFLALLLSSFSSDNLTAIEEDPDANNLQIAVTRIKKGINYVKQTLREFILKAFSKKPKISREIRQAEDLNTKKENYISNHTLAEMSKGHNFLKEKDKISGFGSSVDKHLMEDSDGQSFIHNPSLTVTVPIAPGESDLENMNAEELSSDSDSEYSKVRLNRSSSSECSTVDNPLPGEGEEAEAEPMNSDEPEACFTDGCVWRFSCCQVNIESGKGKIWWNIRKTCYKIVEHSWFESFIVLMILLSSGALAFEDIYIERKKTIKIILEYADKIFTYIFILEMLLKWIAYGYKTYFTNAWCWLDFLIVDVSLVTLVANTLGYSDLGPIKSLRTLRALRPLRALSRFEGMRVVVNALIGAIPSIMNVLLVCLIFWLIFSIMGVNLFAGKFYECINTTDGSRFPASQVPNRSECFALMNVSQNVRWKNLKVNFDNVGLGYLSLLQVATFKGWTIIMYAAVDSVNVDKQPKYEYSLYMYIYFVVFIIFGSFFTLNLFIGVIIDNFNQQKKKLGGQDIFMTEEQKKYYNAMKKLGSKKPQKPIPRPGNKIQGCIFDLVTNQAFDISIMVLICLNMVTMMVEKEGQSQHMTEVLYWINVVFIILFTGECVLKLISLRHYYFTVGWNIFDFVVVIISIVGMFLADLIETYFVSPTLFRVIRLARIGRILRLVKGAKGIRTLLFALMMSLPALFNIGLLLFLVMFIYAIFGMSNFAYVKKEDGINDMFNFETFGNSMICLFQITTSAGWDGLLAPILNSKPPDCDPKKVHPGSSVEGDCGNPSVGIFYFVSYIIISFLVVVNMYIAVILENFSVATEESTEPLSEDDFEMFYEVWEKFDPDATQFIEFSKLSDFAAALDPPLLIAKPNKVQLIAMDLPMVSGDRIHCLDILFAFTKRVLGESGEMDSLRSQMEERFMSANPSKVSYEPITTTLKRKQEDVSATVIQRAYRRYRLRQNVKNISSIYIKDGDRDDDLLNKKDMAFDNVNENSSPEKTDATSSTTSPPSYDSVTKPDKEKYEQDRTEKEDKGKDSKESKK
# T3 sequence (Q07699 19-218, further chain): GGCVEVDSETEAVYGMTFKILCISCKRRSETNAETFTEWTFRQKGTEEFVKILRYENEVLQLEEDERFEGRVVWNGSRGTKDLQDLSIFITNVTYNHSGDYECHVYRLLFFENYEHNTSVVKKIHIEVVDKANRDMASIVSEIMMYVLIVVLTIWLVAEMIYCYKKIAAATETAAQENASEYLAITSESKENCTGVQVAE
SMILES,effect on the current traces of other Kv channels [1],IC50 (rKv4.2 V278A),IC50 (rKv4.2 T280A),"IC50 (hNav1.7; native toxin isolated from venom, n = 5, read-out: IC50 against hNav1.7, native HNTX-VIIa)",IC50 (hNav1.7; [2]),IC50 (rKv4.2 D281K),IC50 (rKv4.2 D284K)
"CC(C)C[C@@H]1NC(=O)[C@H](Cc2c[nH]c3ccccc23)NC(=O)[C@H](Cc2ccc(O)cc2)NC(=O)[C@H](CCCNC(=N)N)NC(=O)[C@@H](NC(=O)[C@@H](N)CCC(=O)O)CSSC[C@@H]2NC(=O)[C@@H]3CSSC[C@@H](C(=O)N[C@H](C(=O)N[C@@H](Cc4c[nH]c5ccccc45)C(=O)N[C@@H](CC(=O)O)C(=O)N[C@@H](Cc4c[nH]c5ccccc45)C(=O)N[C@H](C(=O)N[C@@H](Cc4ccccc4)C(N)=O)[C@@H](C)O)C(C)C)NC(=O)[C@H](Cc4c[nH]c5ccccc45)NC(=O)CNC(=O)[C@H](Cc4c[nH]cn4)NC(=O)[C@H](CCCCN)NC(=O)[C@@H]4CCCN4C(=O)[C@H](CO)NC(=O)[C@H](CSSC[C@H](NC(=O)[C@H]([C@@H](C)O)NC(=O)CNC1=O)C(=O)N[C@@H](CO)C(=O)N[C@@H](CCCCN)C(=O)N[C@@H]([C@@H](C)O)C(=O)NCC(=O)N[C@@H](CC(=O)O)C(=O)N3)NC(=O)[C@H](CO)NC(=O)[C@H](CC(C)C)NC(=O)[C@H](Cc1c[nH]cn1)NC(=O)[C@H](CO)NC2=O [HNTX-VIIa] (H-ECRYWLGTCSKTGDCCSHLSCSPKHGWCVWDWTF-NH2; disulfide 2-16, 9-21, 15-28)",no obvious or only minimal effect,53 ± 6 nM,13 ± 2 nM,50.6 ± 4.6 nM,80.4 ± 19.6 nM,33 ± 6 nM,47 ± 6 nM
"CC[C@H](C)[C@@H]1NC(=O)[C@@H]2CSSC[C@@H]3NC(=O)[C@H](C(C)C)NC(=O)[C@H](CC(C)C)NC(=O)[C@H](CC(N)=O)NC(=O)[C@@H]4CCCN4C(=O)[C@H](CCCNC(=N)N)NC(=O)[C@H](CSSC[C@H](NC(=O)[C@@H](N)CC(=O)O)C(=O)N[C@@H](CC(C)C)C(=O)NCC(=O)N[C@@H](C)C(=O)N[C@@H](Cc4ccccc4)C(=O)N[C@@H](CCCNC(=N)N)C(=O)N[C@@H](CCCCN)C(=O)N2)NC(=O)[C@H](CSSC[C@@H](C(=O)N[C@@H](CCCCN)C(=O)N[C@@H](Cc2ccc(O)cc2)C(=O)N[C@H](C(=O)N[C@@H](Cc2ccccc2)C(N)=O)C(C)C)NC(=O)[C@H](Cc2c[nH]c4ccccc24)NC(=O)[C@H](CCCNC(=N)N)NC(=O)[C@H](Cc2cnc[nH]2)NC(=O)[C@H](CC(C)C)NC(=O)[C@H](CCCNC(=N)N)NC(=O)[C@H](CO)NC3=O)NC(=O)[C@H](CCCCN)NC(=O)[C@H](CC(=O)O)NC(=O)[C@H](CC(N)=O)NC(=O)[C@H](CC(=O)O)NC(=O)[C@@H]2CCCN2C1=O [mGpTx1] (H-DCLGAFRKCIPDNDKCCRPNLVCSRLHRWCKYVF-NH2; disulfide 2-17, 9-23, 16-30)",no obvious or only minimal effect,2850 ± 1310 nM,150 ± 32 nM,–,8 ± 1.2 nM,320 ± 45 nM,663 ± 179 nM
